Experimental data as given in patent US8629163B2, “Tetrakis-quaternary ammonium salts and methods for modulating neuronal nicotinic acteylcholine receptors” (University of Kentucky Research Foundation, priority 2007, dated 2014).

What was measured:
[1] = tested on: rat striatal slices; assay: Nicotine-evoked [^3H]dopamine release (overflow) from superfused rat striatal slices; assay type: cell-based; conditions: for inhibition at 0.1 µM: % inhibition at 100 nM analog, 10 μM S(-)nicotine, rat striatal slices, read-out: Inhibition of Nicotine-evoked [^3H]DA release; for IC50: Rattus norvegicus, full concentration response assay, 4-5 independent experiments in duplicate, 10 μM nicotine, read-out: IC50, inhibition of nicotine-evoked [^3H]DA release (converted)
Protocol: Rat striatal slices (500 μm thickness, 6 mg wet weight) were incubated for 30 minutes in Krebs buffer (118 mM NaCl, 4.7 mM KCl, 1.2 mM MgCl2, 1.0 mM NaH2PO4, 1.3 mM CaCl2, 11.1 mM glucose, 25 mM NaHCO3, 0.11 mM L-ascorbic acid, and 0.004 mM disodium EDTA; pH 7.4, and saturated with 95% O2/5% CO2) in a metabolic shaker at 34° C. Slices were rinsed with 15 mL of fresh buffer and incubated for an additional 30 minutes in fresh buffer containing 0.1 μM [^3H]dopamine (DA; 6 slices/3 mL). Subsequently, slices were rinsed with 15 mL of fresh buffer and each slice transferred to a superfusion chamber. Slices were superfused (0.6 mL/min) for 60 minutes with Krebs buffer containing nomifensine (10 μM) and pargyline (10 μM) and maintained at 34° C., pH 7.4, with continual aeration (95% O2/5% CO2). Two 4-minute samples (2.4 mL each) were collected to determine basal outflow of [^3H]DA. Slices were superfused for 36 min following addition of the analogs to the superfusion buffer after the collection of the second sample and nine 4-minute samples were collected. For initial probe assays, the concentration of analog was 100 nM. For concentration-response studies, the concentration of analog varied from 1 nM to 10 μM, and the effect of each concentration was determined using striatal slices obtained from an individual animal (repeated measures design). Subsequently, S(−)nicotine (10 μM) was added to the buffer and nine additional 4-minute samples were collected. At the end of the experiment, each slice was solubilized and the [^3H] content of the tissue determined.
Radioactivity in the superfusate and tissue samples was determined by liquid scintillation spectroscopy. Fractional release for tritium collected in each sample was divided by the total tritium present in the tissue at the time of sample collection and was expressed as a percentage of total tritium. Basal [^3H]outflow was calculated from the average of the tritium collected in the two […] samples just before addition of the analog. The sum of the increase in collected tritium resulting from either exposure to the test compound or exposure to S(−)nicotine in the absence and presence of the test compound equaled total [^3H]overflow. [^3H]Overflow was calculated by subtracting the [^3H]outflow during an equivalent period of prestimulation from the values in samples collected during and after drug exposure. Inasmuch as the radiolabelled compounds were not separated and identified, the tritium collected in superfusate is referred to as either [^3H]outflow or [^3H]overflow, rather than as [^3H]DA. [^3H]Overflow primarily represents [^3H]DA in the presence of nomifensine and pargyline in the superfusion buffer. […]
Analogs were also evaluated for their ability to inhibit NIC evoked [^3H]DA release. Antagonist activity was evaluated by comparing the NIC-evoked [^3H]overflow in the absence and presence of the analogs (see Table 1). […] Data are expressed as M±SEM. Control represents absence of compound. N=4/analog, *p<0.05
(§1) ^aData are % inhibition at 100 nM concentration of analog for 3-4 independent experiments. Specific binding in the [^3H]NIC binding assay is calculated as the difference between the total binding of 3 nM [^3H]NIC and nonspecific binding in the presence of 10 μM cytisine. Specific binding for the [^3H]MLA binding assay is calculated as the difference between the total binding of 3 nM [^3H]MLA to the receptors alone and its nonspecific binding in the presence of 10 μM nicotine. Analog-induced inhibition of nicotine-evoked [^3H]DA release is calculated as a percent of that in the absence of analog.
^bIC50 from full concentration response assay; data from 4-5 independent experiments, each performed in duplicate.

[2] = biological target: T1, α4β2 neuronal nicotinic acetylcholine receptors (Rattus norvegicus, UniProt P09483+P12390); assay: Inhibition of [^3H]nicotine (NIC) binding to rat brain membranes; conditions: % inhibition at 100 nM analog; 3 nM [^3H]NIC; nonspecific 10 μM cytisine; 3-4 independent experiments
T1 construct: The brain tissue was homogenized with a Tekmar Polytron; from tissue; host or cells: rat brain membranes (whole brain without cortex and cerebellum)
Protocol: (§2) Rat brain was dissected into the whole brain tissue without cortex and cerebellum and was frozen in liquid nitrogen and stored at −70° C. until use. The brain tissue was homogenized with a Tekmar Polytron (setting 40) in 20 volumes of ice-cold hypotonic buffer (2 mM HEPES, 14.4 mM NaCl, 0.15 mM KCl, 0.2 mM CaCl2 and […], pH=7.5). The homogenate was centrifuged at 25,000×g for 17 minutes at 4° C. The pellet was resuspended in 20 volumes of the same buffer, and incubated for 10 min at 37° C. The resuspension was cooled to 4° C. and then centrifuged at the above parameters. The pellet was resuspended by sonicaton and centrifuged using the same conditions. The final pellet was stored at −20° C. under 10 ml of the incubation buffer and was suspended just before incubation with radioligand.
(§3) The binding of [^3H]NIC and [^3H]MLA to probe α4β2 and α7-type neuronal nicotinic acetylcholine receptors, respectively, was determined using [^3H]NIC (67 Ci/mmol) and [^3H]MLA (60 Ci/mmol), purchased from Perkin Elmer Life Sciences, Boston, Mass., U.S.A. and American Radiolabel Chemicals, Inc., St. Louis, Mo., U.S.A. Binding was performed in duplicate, in a final volume of 250 μl of the incubation medium, containing 20 mM HEPES, 144 mM NaCl, 1.5 mM KCl, 2 mM CaCl2, and 1 mM MgSO4, pH=7.5. Reaction was initiated by the addition of 100 μL of membrane suspension to the samples containing a desired concentration of test compounds and 3 nM [^3H]NIC or 3 nM [^3H]MLA (final concentrations) and incubated for 60 min at room temperature. Total binding was measured in the absence of unlabelled ligand and nonspecific binding was determined in the presence of 10 μM cytisine, for [^3H]NIC binding, and 10 μM nicotine for [^3H]MLA. The binding reaction was terminated by dilution of samples with 3 mL of ice-cold incubation buffer followed by immediate filtration through Unifilter-96 GFB-filter plates presoaked in 0.5% polyethylenimine using a Filtermate Harvester (Perkin Elmer, Shelton, Conn., U.S.A.). Filters were rinsed five times with 350 μL of ice-cold buffer, and then filter plates were dried at 48° C. for 60 min, bottom sealed and each well filled with 40 μL of Packard Microscint-20 cocktail. After 60 min of gentle shaking, the filter plates were top sealed and radioactivity measured using a Packard TopCount NXT scintillation counter. CPMs were processed through a Packard Windows NT operating system. Protein was measured using the Bradford dye-binding procedure with bovine serum albumin as the standard.
(§4) The ability of a probe concentration of 100 nM of the tetrakis-quaternary ammonium salts to inhibit specific binding was evaluated.
as §1

[3] = biological target: T2, α7-type neuronal nicotinic acetylcholine receptors (Rattus norvegicus, UniProt Q05941); assay: Inhibition of [^3H]methyllycaconitine (MLA) binding to rat brain membranes; conditions: % inhibition at 100 nM analog; 3 nM [^3H]MLA; nonspecific 10 μM nicotine; 3-4 independent experiments
T2 construct: The brain tissue was homogenized with a Tekmar Polytron; from tissue; host or cells: rat brain membranes (whole brain without cortex and cerebellum)
Protocol: as §2, §3, §4, §1

T2 sequence (Q05941 23-502): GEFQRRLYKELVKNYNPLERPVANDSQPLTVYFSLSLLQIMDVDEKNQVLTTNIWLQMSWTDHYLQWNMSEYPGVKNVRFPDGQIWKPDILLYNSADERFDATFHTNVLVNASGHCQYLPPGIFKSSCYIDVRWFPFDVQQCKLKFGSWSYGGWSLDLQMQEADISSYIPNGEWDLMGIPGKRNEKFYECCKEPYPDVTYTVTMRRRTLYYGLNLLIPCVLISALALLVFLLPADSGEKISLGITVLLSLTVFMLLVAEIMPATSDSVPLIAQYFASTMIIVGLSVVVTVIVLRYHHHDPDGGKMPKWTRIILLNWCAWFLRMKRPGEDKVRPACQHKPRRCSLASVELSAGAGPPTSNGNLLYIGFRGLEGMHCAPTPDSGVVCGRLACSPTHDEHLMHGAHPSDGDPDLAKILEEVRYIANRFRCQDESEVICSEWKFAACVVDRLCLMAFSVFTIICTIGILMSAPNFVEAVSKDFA
T1 sequence (P09483 31-630): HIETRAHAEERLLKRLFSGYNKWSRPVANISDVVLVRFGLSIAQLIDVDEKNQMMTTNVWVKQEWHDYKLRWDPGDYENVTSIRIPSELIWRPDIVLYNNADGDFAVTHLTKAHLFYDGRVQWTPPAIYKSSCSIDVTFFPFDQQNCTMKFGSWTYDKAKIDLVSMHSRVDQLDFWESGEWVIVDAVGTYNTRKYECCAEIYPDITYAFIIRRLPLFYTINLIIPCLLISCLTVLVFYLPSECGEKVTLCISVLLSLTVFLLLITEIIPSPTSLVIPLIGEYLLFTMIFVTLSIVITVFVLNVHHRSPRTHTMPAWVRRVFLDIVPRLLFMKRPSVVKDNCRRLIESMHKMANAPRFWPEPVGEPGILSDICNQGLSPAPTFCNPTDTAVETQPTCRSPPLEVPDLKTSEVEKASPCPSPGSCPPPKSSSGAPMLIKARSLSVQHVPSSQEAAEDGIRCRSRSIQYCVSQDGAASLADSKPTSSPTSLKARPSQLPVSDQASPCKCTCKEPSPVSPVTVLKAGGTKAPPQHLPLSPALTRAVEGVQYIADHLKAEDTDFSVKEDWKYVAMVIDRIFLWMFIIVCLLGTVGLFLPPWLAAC
T1 sequence (P12390 25-500): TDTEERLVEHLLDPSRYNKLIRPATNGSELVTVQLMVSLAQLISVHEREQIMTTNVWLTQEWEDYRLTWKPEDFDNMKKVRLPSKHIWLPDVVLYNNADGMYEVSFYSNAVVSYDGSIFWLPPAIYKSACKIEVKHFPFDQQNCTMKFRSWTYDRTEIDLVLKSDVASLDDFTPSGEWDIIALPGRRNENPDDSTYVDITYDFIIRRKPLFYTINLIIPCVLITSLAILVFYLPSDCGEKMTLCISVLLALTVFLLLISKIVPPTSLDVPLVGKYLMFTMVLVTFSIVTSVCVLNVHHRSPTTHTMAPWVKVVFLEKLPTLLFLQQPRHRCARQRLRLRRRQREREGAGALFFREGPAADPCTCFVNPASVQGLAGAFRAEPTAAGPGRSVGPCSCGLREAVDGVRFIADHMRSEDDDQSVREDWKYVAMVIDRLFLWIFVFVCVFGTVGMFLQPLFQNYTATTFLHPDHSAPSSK

Compound	inhibition at 0.1 µM [1]	Inhibition of [^3H]Nicotine binding [2]	Inhibition of [^3H]MLA binding [3]	IC50 [1]
Cc1cc(C)c[n+](CCCC#Cc2cc(C#CCCC[n+]3cc(C)cc(C)c3)c(C#CCCC[n+]3cc(C)cc(C)c3)cc2C#CCCC[n+]2cc(C)cc(C)c2)c1.[Br-].[Br-].[Br-].[Br-]	12 ± 5%	0 ± 05%	3.9 ± 3.9%	–
Cc1cc[n+](CCCC#Cc2cc(C#CCCC[n+]3ccc(C)cc3)c(C#CCCC[n+]3ccc(C)cc3)cc2C#CCCC[n+]2ccc(C)cc2)cc1.[Br-].[Br-].[Br-].[Br-]	35 ± 14%	24 ± 5.5%	3.0 ± 3.0%	–
OCCCc1ccc[n+](CCCC#Cc2cc(C#CCCC[n+]3cccc(CCCO)c3)c(C#CCCC[n+]3cccc(CCCO)c3)cc2C#CCCC[n+]2cccc(CCCO)c2)c1.[Br-].[Br-].[Br-].[Br-]	41 ± 15%	0 ± 0%	5.7 ± 5.7%	–
Cc1cc[n+](CCCC#Cc2cc(C#CCCC[n+]3ccc(C)c(C)c3)c(C#CCCC[n+]3ccc(C)c(C)c3)cc2C#CCCC[n+]2ccc(C)c(C)c2)cc1C.[Br-].[Br-].[Br-].[Br-]	17 ± 6%	9.8 ± 1.2%	0.6 ± 0.6%	–
C(#Cc1cc(C#CCCC[n+]2ccc3ccccc3c2)c(C#CCCC[n+]2ccc3ccccc3c2)cc1C#CCCC[n+]1ccc2ccccc2c1)CCC[n+]1ccc2ccccc2c1.[Br-].[Br-].[Br-].[Br-]	39 ± 17%	0 ± 0%	4.9 ± 3.8%	–
C(#Cc1cc(C#CCCC[n+]2cccc(-c3ccccc3)c2)c(C#CCCC[n+]2cccc(-c3ccccc3)c2)cc1C#CCCC[n+]1cccc(-c2ccccc2)c1)CCC[n+]1cccc(-c2ccccc2)c1.[Br-].[Br-].[Br-].[Br-]	37 ± 15%	0.3 ± 0.3%	53 ± 0.8%	–
CN1CCCC1c1ccc[n+](CCCC#Cc2cc(C#CCCC[n+]3cccc(C4CCCN4C)c3)c(C#CCCC[n+]3cccc(C4CCCN4C)c3)cc2C#CCCC[n+]2cccc(C3CCCN3C)c2)c1.[Br-].[Br-].[Br-].[Br-] (stereo not drawn)	31 ± 13%	38 ± 7.4%	15 ± 2.0%	–
C(#Cc1cc(C#CCCC[n+]2cccc(Cc3ccccc3)c2)c(C#CCCC[n+]2cccc(Cc3ccccc3)c2)cc1C#CCCC[n+]1cccc(Cc2ccccc2)c1)CCC[n+]1cccc(Cc2ccccc2)c1.[Br-].[Br-].[Br-].[Br-]	17 ± 17%	2.9 ± 2.9%	53 ± 3.5%	–
C(#Cc1cc(C#CCCC[n+]2ccc3c(c2)CCCC3)c(C#CCCC[n+]2ccc3c(c2)CCCC3)cc1C#CCCC[n+]1ccc2c(c1)CCCC2)CCC[n+]1ccc2c(c1)CCCC2.[Br-].[Br-].[Br-].[Br-]	24 ± 14%	9.7 ± 9.7%	17 ± 8.9%	–
Cc1ccc[n+](CCCC#Cc2cc(C#CCCC[n+]3cccc(C)c3)c(C#CCCC[n+]3cccc(C)c3)cc2C#CCCC[n+]2cccc(C)c2)c1.[Br-].[Br-].[Br-].[Br-]	16 ± 13%	11 ± 11%	18 ± 7.8%	–
Cc1cc(C)c[n+](CCCCCc2cc(CCCCC[n+]3cc(C)cc(C)c3)c(CCCCC[n+]3cc(C)cc(C)c3)cc2CCCCC[n+]2cc(C)cc(C)c2)c1.[Br-].[Br-].[Br-].[Br-]	45 ± 14%	3.7 ± 3.7%	15 ± 8%	–
OCCCc1ccc[n+](CCCCCc2cc(CCCCC[n+]3cccc(CCCO)c3)c(CCCCC[n+]3cccc(CCCO)c3)cc2CCCCC[n+]2cccc(CCCO)c2)c1.[Br-].[Br-].[Br-].[Br-]	64 ± 15%	9.6 ± 5.2%	20 ± 13%	3.38 nM
Cc1ccc[n+](CCCCCc2cc(CCCCC[n+]3cccc(C)c3)c(CCCCC[n+]3cccc(C)c3)cc2CCCCC[n+]2cccc(C)c2)c1.[Br-].[Br-].[Br-].[Br-]	8 ± 4%	12 ± 4.4%	12 ± 6.9%	–
CN1CCCC1c1ccc[n+](CCCCCc2cc(CCCCC[n+]3cccc(C4CCCN4C)c3)c(CCCCC[n+]3cccc(C4CCCN4C)c3)cc2CCCCC[n+]2cccc(C3CCCN3C)c2)c1.[Br-].[Br-].[Br-].[Br-] (stereo not drawn)	43 ± 21%	7.4 ± 4.7%	26 ± 14%	–
[Br-].[Br-].[Br-].[Br-].c1ccc(Cc2ccc[n+](CCCCCc3cc(CCCCC[n+]4cccc(Cc5ccccc5)c4)c(CCCCC[n+]4cccc(Cc5ccccc5)c4)cc3CCCCC[n+]3cccc(Cc4ccccc4)c3)c2)cc1	54 ± 10%	13 ± 3.3%	16 ± 8%	28 nM
[Br-].[Br-].[Br-].[Br-].c1c(CCCCC[n+]2ccc3c(c2)CCCC3)c(CCCCC[n+]2ccc3c(c2)CCCC3)cc(CCCCC[n+]2ccc3c(c2)CCCC3)c1CCCCC[n+]1ccc2c(c1)CCCC2	27 ± 2%	0.9 ± 0.9%	27 ± 15%	56 nM
[Br-].[Br-].[Br-].[Br-].c1ccc(-c2ccc[n+](CCCCCc3cc(CCCCC[n+]4cccc(-c5ccccc5)c4)c(CCCCC[n+]4cccc(-c5ccccc5)c4)cc3CCCCC[n+]3cccc(-c4ccccc4)c3)c2)cc1	19 ± 15%	6.6 ± 4.5%	33 ± 17%	–
